BindingDB's records for PubMed 34998058 (Central South University, 2022)
Values belong to the molecule of their own block, whether it stands above or below them.

Key:
Maltase-glucoamylase = Maltase-glucoamylase (Homo sapiens, UniProt O43451); experiment: Inhibition of alpha-glucosidase (unknown origin)
[1] = Inhibition of P-gp in human K562 cells assessed as adriamycin IC50 at 10 ug/ml
[2] = Inhibition of P-gp in human K562 cells assessed as adriamycin IC50 at 8 ug/ml
[3] = Inhibition of P-gp in human K562/A02 cells assessed as adriamycin IC50 at 8 ug/ml
[4] = Inhibition of P-gp in human K562/A02 cells assessed as adriamycin IC50 at 4 ug/ml
[5] = Inhibition of P-gp in human K562/A02 cells assessed as adriamycin IC50 at 6 ug/ml
[6] = Inhibition of P-gp in human K562 cells assessed as adriamycin IC50 at 6 ug/ml
[7] = Inhibition of P-gp in human K562 cells assessed as adriamycin IC50 at 2 ug/ml
[8] = Inhibition of P-gp in human K562 cells assessed as adriamycin IC50 at 4 ug/ml
[9] = Inhibition of P-gp in human K562/A02 cells assessed as adriamycin IC50 at 2 ug/ml
[10] = Inhibition of P-gp in human K562/A02 cells assessed as adriamycin IC50 at 10 ug/ml

Maltase-glucoamylase, sequence (O43451 whole entry): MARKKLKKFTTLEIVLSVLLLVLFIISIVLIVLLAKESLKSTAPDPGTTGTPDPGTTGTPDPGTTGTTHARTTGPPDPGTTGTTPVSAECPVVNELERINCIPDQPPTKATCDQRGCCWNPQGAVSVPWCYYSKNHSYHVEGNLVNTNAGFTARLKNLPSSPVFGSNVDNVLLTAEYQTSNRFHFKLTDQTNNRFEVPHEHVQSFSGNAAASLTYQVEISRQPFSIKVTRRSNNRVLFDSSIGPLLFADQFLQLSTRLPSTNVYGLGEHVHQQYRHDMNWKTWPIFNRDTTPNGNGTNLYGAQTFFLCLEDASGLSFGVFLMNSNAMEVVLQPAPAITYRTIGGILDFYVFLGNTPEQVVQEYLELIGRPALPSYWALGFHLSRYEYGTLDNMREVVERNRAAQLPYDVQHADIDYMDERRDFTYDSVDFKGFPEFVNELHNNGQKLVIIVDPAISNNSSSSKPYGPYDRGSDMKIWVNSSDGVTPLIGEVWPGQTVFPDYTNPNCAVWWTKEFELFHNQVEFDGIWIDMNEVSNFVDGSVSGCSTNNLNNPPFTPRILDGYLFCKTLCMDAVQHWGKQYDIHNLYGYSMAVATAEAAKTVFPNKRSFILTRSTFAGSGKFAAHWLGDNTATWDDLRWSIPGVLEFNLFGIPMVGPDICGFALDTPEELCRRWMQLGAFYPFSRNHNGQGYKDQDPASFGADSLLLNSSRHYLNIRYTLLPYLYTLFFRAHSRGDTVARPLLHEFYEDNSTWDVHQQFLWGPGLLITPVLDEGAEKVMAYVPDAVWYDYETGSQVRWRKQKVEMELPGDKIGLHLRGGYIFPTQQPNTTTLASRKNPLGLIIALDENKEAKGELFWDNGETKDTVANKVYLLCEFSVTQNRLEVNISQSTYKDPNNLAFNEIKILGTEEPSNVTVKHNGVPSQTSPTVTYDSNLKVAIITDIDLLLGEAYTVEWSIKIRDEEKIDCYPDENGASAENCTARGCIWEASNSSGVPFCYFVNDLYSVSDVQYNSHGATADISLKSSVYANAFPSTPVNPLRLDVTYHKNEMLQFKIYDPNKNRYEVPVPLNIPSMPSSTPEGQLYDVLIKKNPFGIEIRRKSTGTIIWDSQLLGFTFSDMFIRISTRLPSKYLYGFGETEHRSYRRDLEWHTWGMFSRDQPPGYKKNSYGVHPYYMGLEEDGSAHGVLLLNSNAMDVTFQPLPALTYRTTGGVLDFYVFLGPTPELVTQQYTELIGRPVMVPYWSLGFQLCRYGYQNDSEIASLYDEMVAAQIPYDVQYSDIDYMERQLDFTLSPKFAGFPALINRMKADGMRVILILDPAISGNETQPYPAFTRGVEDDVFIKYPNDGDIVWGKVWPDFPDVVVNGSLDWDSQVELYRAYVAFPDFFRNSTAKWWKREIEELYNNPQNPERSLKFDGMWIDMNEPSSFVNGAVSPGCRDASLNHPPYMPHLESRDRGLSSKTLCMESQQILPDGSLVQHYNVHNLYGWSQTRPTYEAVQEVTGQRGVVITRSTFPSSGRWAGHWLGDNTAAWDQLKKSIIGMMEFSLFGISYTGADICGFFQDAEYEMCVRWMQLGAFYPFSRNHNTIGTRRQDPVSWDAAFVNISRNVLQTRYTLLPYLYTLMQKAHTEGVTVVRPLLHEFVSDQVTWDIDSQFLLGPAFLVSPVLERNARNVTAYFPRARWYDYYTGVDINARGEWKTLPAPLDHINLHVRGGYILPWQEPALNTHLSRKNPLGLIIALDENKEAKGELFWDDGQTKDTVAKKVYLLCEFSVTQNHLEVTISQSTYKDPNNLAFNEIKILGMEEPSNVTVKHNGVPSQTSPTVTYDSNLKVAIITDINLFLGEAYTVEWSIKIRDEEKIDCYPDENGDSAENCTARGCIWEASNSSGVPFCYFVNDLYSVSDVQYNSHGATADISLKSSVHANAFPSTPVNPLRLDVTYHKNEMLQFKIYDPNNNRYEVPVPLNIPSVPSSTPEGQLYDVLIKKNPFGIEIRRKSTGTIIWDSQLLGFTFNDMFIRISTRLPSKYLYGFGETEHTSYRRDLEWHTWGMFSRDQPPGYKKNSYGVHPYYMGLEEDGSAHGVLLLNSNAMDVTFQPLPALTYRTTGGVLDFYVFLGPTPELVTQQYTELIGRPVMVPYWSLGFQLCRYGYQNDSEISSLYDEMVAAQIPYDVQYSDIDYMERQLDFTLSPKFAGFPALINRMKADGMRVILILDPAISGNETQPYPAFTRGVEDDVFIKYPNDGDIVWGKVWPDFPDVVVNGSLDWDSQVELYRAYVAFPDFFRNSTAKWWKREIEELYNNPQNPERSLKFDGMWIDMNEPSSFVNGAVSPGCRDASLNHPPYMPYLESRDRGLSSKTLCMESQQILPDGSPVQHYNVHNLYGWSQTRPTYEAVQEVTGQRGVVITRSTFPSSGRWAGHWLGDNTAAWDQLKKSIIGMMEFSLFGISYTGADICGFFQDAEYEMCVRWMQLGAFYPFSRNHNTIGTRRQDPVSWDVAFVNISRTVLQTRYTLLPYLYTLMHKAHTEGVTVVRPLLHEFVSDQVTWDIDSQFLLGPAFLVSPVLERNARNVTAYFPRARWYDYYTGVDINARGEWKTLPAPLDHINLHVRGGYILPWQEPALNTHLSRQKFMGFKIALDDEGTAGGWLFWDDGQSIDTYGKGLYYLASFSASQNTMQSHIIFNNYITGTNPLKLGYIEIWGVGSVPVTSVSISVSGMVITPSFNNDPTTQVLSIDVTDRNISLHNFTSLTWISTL

- IC50 (Maltase-glucoamylase): 83.8 µM
SMILES: Cc1ccc(NC(=O)Cn2c(=O)c(C)nc3ccccc32)c([N+](=O)[O-])c1

- IC50 (Maltase-glucoamylase): 301 µM
SMILES: CC(C)c1nc2ccc(N3C(=O)CSC3c3ccc([N+](=O)[O-])cc3)cc2[nH]c1=O (centres undefined)

- IC50 (Maltase-glucoamylase): 12.9 µM
SMILES: O=c1[nH]c2ccccc2n2c(-c3ccc(O)cc3O)ccc12

- IC50 [1]: 0.561 µM
- IC50 [2]: 0.729 µM
- IC50 [3]: 5.78 µM
- IC50 [4]: 9.03 µM
- IC50 [5]: 7.52 µM
- IC50 [6]: 0.841 µM
- IC50 [7]: 0.785 µM
- IC50 [8]: 0.673 µM
- IC50 [9]: 12.9 µM
- IC50 [10]: 6.28 µM
SMILES: Cc1nc2cc(F)ccc2[nH]c1=O

- IC50 (Maltase-glucoamylase): 13.9 µM
SMILES: COc1cccc(/C=N/Nc2nc3ccccc3[nH]c2=O)c1

- IC50 (Maltase-glucoamylase): 166 µM
SMILES: COc1ccc(C(=O)Nc2cccc(C(=O)/C=C3/Nc4ccccc4NC3=O)c2)cc1

- IC50 (Maltase-glucoamylase): 23 µM
SMILES: O=c1[nH]c2ccccc2n2c(-c3ccc([N+](=O)[O-])cc3[N+](=O)[O-])ccc12

- IC50 (Maltase-glucoamylase): 9.99 µM
SMILES: O=c1[nH]c2ccccc2nc1N/N=C/c1cccs1

- IC50 (Maltase-glucoamylase): 40.1 µM
SMILES: O=C(/C=C/c1ccccc1)/C=C1/Nc2ccccc2NC1=O

- IC50 [1]: 0.688 µM
- IC50 [2]: 0.746 µM
- IC50 [3]: 8.95 µM
- IC50 [4]: 15 µM
- IC50 [5]: 10.5 µM
- IC50 [6]: 0.516 µM
- IC50 [7]: 0.803 µM
- IC50 [8]: 0.746 µM
- IC50 [9]: 20.1 µM
- IC50 [10]: 7.8 µM
SMILES: Cc1ccc2[nH]c(=O)c(C)nc2c1

- IC50 (Maltase-glucoamylase): 41.3 µM
SMILES: Cc1nc2ccccc2n(CC(=O)N/N=C/c2ccc(OCCn3cc(CN4CCOCC4)nn3)cc2)c1=O

- IC50 (Maltase-glucoamylase): 276 µM
SMILES: COc1ccc(C2SCC(=O)N2c2ccc3nc(Cc4ccc(O)cc4)c(=O)[nH]c3c2)cc1 (centres undefined)

- IC50 (Maltase-glucoamylase): 13 µM
SMILES: O=c1[nH]c2ccccc2n2c(-c3ccc(Cl)c(Cl)c3)ccc12

- IC50 (Maltase-glucoamylase): 48.2 µM
SMILES: Cc1ccc(-n2cc(COc3ccc(/C=N/NC(=O)Cn4c(=O)c(C)nc5ccccc54)cc3)nn2)cc1

- IC50 (Maltase-glucoamylase): 42.2 µM
SMILES: Cc1nc2ccccc2n(CC(=O)N/N=C/c2ccc(OCCn3cc(CN4CCCCC4)nn3)cc2)c1=O

- IC50 (Maltase-glucoamylase): 45.8 µM
SMILES: Cc1nc2ccccc2n(CC(=O)N/N=C/c2ccc(OCCn3cc(CN4CCCC4)nn3)cc2)c1=O
